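Following 48 hours of exposure in 96-well plates, responses at five concentrations were used to interpolate endpoints linearly. GI50 marks 50% less growth. TGI: concentration producing complete growth inhibition.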
The molecules below were run on EKVX NSCLC (assay: inhibition of tumour cell growth, NCI panel, 48 h).
With `O=C(CCN(C(=O)O)S(=O)(=O)c1ccc(NC(=O)c2ccccc2)cc1)Nc1ccccc1` the TGI was greater than 100 µM.
With `N#CN/C(N)=N/CO` the TGI was greater than 100 µM.

These molecules were tested on OVCAR-8 ovarian (assay: inhibition of tumour cell growth, NCI panel, 48 h).
`N.N.N.N.O=C([O-])CCl.O=C([O-])CCl.[Co+3].[O-][Cl+3]([O-])([O-])[O-]` gave a GI50 greater than 100 µM and a TGI greater than 100 µM.
In the case of `COC(=O)C1=C(OC(=O)/C(=C/c2ccc(Cl)cc2)c2ccc(Cl)cc2)C(C(=O)OC)[C@@]2(O)[C@@H](C(=O)OC)[C@H](C)C[C@@H]1[C@@H]2C(=O)OC` (stereo partly drawn), the TGI is reported as greater than 100 µM.
`CC(C)CCC1CC2C(=O)N(c3ccccc3)C(=O)C2c2[nH]c3ccccc3c21` (stereo not drawn) gave a TGI of 11.7 µM.
Work on `CCCCCCCCCCCCCC(=O)OCC(C[As](=O)(O)O)OC(=O)CCCCCCCCCCCCC` (stereo not drawn) yielded a TGI greater than 100 µM.
`O=C(CCN(C(=O)O)S(=O)(=O)c1ccc(NC(=O)c2ccccc2)cc1)Nc1ccccc1` was tested, and the TGI was greater than 100 µM.
`N#CN/C(N)=N/CO` was tested, and the TGI was greater than 100 µM.

Each molecule was assayed on SW-620 colon (assay: inhibition of tumour cell growth, NCI panel, 48 h).
`N.N.N.N.O=C([O-])CCl.O=C([O-])CCl.[Co+3].[O-][Cl+3]([O-])([O-])[O-]` showed a GI50 greater than 100 µM and a TGI greater than 100 µM.
In the case of `COC(=O)C1=C(OC(=O)/C(=C/c2ccc(Cl)cc2)c2ccc(Cl)cc2)C(C(=O)OC)[C@@]2(O)[C@@H](C(=O)OC)[C@H](C)C[C@@H]1[C@@H]2C(=O)OC` (stereo partly drawn), the TGI is reported as greater than 100 µM.
With `CC(C)CCC1CC2C(=O)N(c3ccccc3)C(=O)C2c2[nH]c3ccccc3c21` (stereo not drawn) the TGI was 13.1 µM.
Molecule `CCCCCCCCCCCCCC(=O)OCC(C[As](=O)(O)O)OC(=O)CCCCCCCCCCCCC` (stereo not drawn) has a TGI of 47 µM.
`O=C(CCN(C(=O)O)S(=O)(=O)c1ccc(NC(=O)c2ccccc2)cc1)Nc1ccccc1` gave a TGI greater than 68 µM.
Molecule `N#CN/C(N)=N/CO` has a TGI greater than 56.3 µM.

These molecules were tested on 786-0 renal (assay: inhibition of tumour cell growth, NCI panel, 48 h).
`N.N.N.N.O=C([O-])CCl.O=C([O-])CCl.[Co+3].[O-][Cl+3]([O-])([O-])[O-]` was tested, and the GI50 was greater than 100 µM and the TGI was greater than 100 µM.
Molecule `COC(=O)C1=C(OC(=O)/C(=C/c2ccc(Cl)cc2)c2ccc(Cl)cc2)C(C(=O)OC)[C@@]2(O)[C@@H](C(=O)OC)[C@H](C)C[C@@H]1[C@@H]2C(=O)OC` (stereo partly drawn) has a TGI greater than 100 µM.
`CC(C)CCC1CC2C(=O)N(c3ccccc3)C(=O)C2c2[nH]c3ccccc3c21` (stereo not drawn) showed a TGI of 15.9 µM.
With `CCCCCCCCCCCCCC(=O)OCC(C[As](=O)(O)O)OC(=O)CCCCCCCCCCCCC` (stereo not drawn) the TGI was greater than 100 µM.
`O=C(CCN(C(=O)O)S(=O)(=O)c1ccc(NC(=O)c2ccccc2)cc1)Nc1ccccc1` gave a TGI greater than 100 µM.
In the case of `N#CN/C(N)=N/CO`, the TGI is reported as greater than 62.1 µM.

Each molecule was assayed on SF-295 CNS (assay: inhibition of tumour cell growth, NCI panel, 48 h).
`N.N.N.N.O=C([O-])CCl.O=C([O-])CCl.[Co+3].[O-][Cl+3]([O-])([O-])[O-]` was tested, and the GI50 was greater than 100 µM and the TGI was greater than 100 µM.
`COC(=O)C1=C(OC(=O)/C(=C/c2ccc(Cl)cc2)c2ccc(Cl)cc2)C(C(=O)OC)[C@@]2(O)[C@@H](C(=O)OC)[C@H](C)C[C@@H]1[C@@H]2C(=O)OC` (stereo partly drawn) gave a TGI greater than 100 µM.
`CC(C)CCC1CC2C(=O)N(c3ccccc3)C(=O)C2c2[nH]c3ccccc3c21` (stereo not drawn) was tested, and the TGI was 2.86 µM.
`O=C(CCN(C(=O)O)S(=O)(=O)c1ccc(NC(=O)c2ccccc2)cc1)Nc1ccccc1` was tested, and the TGI was greater than 100 µM.
For `N#CN/C(N)=N/CO`, the TGI was greater than 100 µM.

What follows are molecules tested on BT-549 breast (assay: inhibition of tumour cell growth, NCI panel, 48 h).
Molecule `COC(=O)C1=C(OC(=O)/C(=C/c2ccc(Cl)cc2)c2ccc(Cl)cc2)C(C(=O)OC)[C@@]2(O)[C@@H](C(=O)OC)[C@H](C)C[C@@H]1[C@@H]2C(=O)OC` (stereo partly drawn) has a TGI greater than 100 µM.

What follows are molecules tested on SK-MEL-28 melanoma (assay: inhibition of tumour cell growth, NCI panel, 48 h).
Work on `N.N.N.N.O=C([O-])CCl.O=C([O-])CCl.[Co+3].[O-][Cl+3]([O-])([O-])[O-]` yielded a GI50 greater than 100 µM and a TGI greater than 100 µM.
With `COC(=O)C1=C(OC(=O)/C(=C/c2ccc(Cl)cc2)c2ccc(Cl)cc2)C(C(=O)OC)[C@@]2(O)[C@@H](C(=O)OC)[C@H](C)C[C@@H]1[C@@H]2C(=O)OC` (stereo partly drawn) the TGI was greater than 100 µM.
`CC(C)CCC1CC2C(=O)N(c3ccccc3)C(=O)C2c2[nH]c3ccccc3c21` (stereo not drawn) showed a TGI of 20 µM.
`CCCCCCCCCCCCCC(=O)OCC(C[As](=O)(O)O)OC(=O)CCCCCCCCCCCCC` (stereo not drawn) gave a TGI greater than 100 µM.
For `O=C(CCN(C(=O)O)S(=O)(=O)c1ccc(NC(=O)c2ccccc2)cc1)Nc1ccccc1`, the TGI was greater than 100 µM.
Molecule `N#CN/C(N)=N/CO` has a TGI greater than 100 µM.

Each molecule was assayed on NCI-H522 lung (assay: inhibition of tumour cell growth, NCI panel, 48 h).
`N.N.N.N.O=C([O-])CCl.O=C([O-])CCl.[Co+3].[O-][Cl+3]([O-])([O-])[O-]` gave a GI50 greater than 100 µM and a TGI greater than 100 µM.
For `COC(=O)C1=C(OC(=O)/C(=C/c2ccc(Cl)cc2)c2ccc(Cl)cc2)C(C(=O)OC)[C@@]2(O)[C@@H](C(=O)OC)[C@H](C)C[C@@H]1[C@@H]2C(=O)OC` (stereo partly drawn), the TGI was greater than 67.3 µM.
`CCCCCCCCCCCCCC(=O)OCC(C[As](=O)(O)O)OC(=O)CCCCCCCCCCCCC` (stereo not drawn) was tested, and the TGI was greater than 100 µM.
In the case of `O=C(CCN(C(=O)O)S(=O)(=O)c1ccc(NC(=O)c2ccccc2)cc1)Nc1ccccc1`, the TGI is reported as greater than 100 µM.
For `N#CN/C(N)=N/CO`, the TGI was greater than 100 µM.

Each molecule was assayed on UO-31 renal (assay: inhibition of tumour cell growth, NCI panel, 48 h).
`N.N.N.N.O=C([O-])CCl.O=C([O-])CCl.[Co+3].[O-][Cl+3]([O-])([O-])[O-]` showed a GI50 greater than 100 µM and a TGI greater than 100 µM.
`COC(=O)C1=C(OC(=O)/C(=C/c2ccc(Cl)cc2)c2ccc(Cl)cc2)C(C(=O)OC)[C@@]2(O)[C@@H](C(=O)OC)[C@H](C)C[C@@H]1[C@@H]2C(=O)OC` (stereo partly drawn) gave a TGI greater than 100 µM.
Molecule `CC(C)CCC1CC2C(=O)N(c3ccccc3)C(=O)C2c2[nH]c3ccccc3c21` (stereo not drawn) has a TGI of 18.9 µM.
Work on `CCCCCCCCCCCCCC(=O)OCC(C[As](=O)(O)O)OC(=O)CCCCCCCCCCCCC` (stereo not drawn) yielded a TGI greater than 100 µM.
